# Like-named read-outs stand apart in the source and are kept apart here.
# Tests used:
# CDK9/cyclin T = CDK9/cyclin T (Homo sapiens, UniProt P50750); assay: CDK9/cyclin T inhibition, two independent assays; assay type: biochemical
# Experimental: CDK enzymatic assays were performed by Reaction Biology Corp. (Malvern, PA), using 10 µM ATP for determining MC180295 IC50 values for each CDK family member for which assays were available. Kinase enzymatic assays were also performed by Nanosyn (Santa Clara, CA), using microfluidic technology and MC180295 IC50 curves against 10 CDKs. Selectivity against CDK9 was confirmed for the enantiomers at Reaction Biology Corp. (Malvern, PA).
# [1] = system: 46 cell lines representing 6 different malignancies; assay: Growth inhibition in a panel of cancer cell lines; assay type: cell-based; details: 6 malignancies, read-out: median IC50
# Experimental: (§1) The live-cell assay for GFP reactivation in YB5 cells was done as previously described. Cells were treated with a single dose of drug 24 h after seeding at low density, and GFP fluorescence measured in a Millipore Guava flow cytometer (EMD, Millipore) instrument, or by imaging in a Cytation instrument (Agilent). Cancer cell lines (listed in Additional file 1: Fig. S1A) were obtained from ATCC or the Temple/Fox Chase Cellular Repository and cultured in the recommended medium. To measure growth inhibition, cells were seeded in 96-well plates at 40% confluency. Fresh medium was changed the next day and drugs were added directly. Drug-free fresh medium was changed on the fourth day. The cells were collected on day 5 by trypsin, suspended in medium, mixed with trypan blue (Thermo Fisher Scientific) (1:1 ratio), and counted using a LUNA II automated cell counter. Each sample was counted at least three times, and average numbers used for the analysis. Each treatment condition was performed in biological triplicates.
# DU145 = assay: Growth inhibition (cell counting, day 5); assay type: cell-based; details: Homo sapiens, DU-145; Prostate
# Experimental: as §1
# MCF7 = assay: Growth inhibition (cell counting, day 5); assay type: cell-based; details: Homo sapiens, Breast
# Experimental: as §1
# Pharmacokinetics in mice = assay type: in vivo; details: mouse, plasma
# Experimental: Fig. 1 MC180295 enzymatic/growth inhibition and pharmacokinetics. A In vitro activity (IC50 values) of MC180295 against a panel of CDKs. B MC180295 IC50 values against 46 cell lines from 6 different cancer types. C Pharmacokinetic analyses after oral or IV administration of low-dose (1 mg/kg IV or 2.5 mg/kg oral) MC180295 to mice. D Pharmacokinetic analyses after IP administration of 10 mg/kg MC180295 to mice.
# We next studied the pharmacokinetics (PK) of MC180295.
# CT26.CL25 cells = assay: CT26.CL25 colon cancer model in B6 mice with/without CD8 depletion; assay type: in vivo; details: CT26.CL25 s.c. in B6 mice, MC180295 20 mg/kg i.p. q.o.d., DAC 0.5 mg/kg i.p. daily
# Experimental: Fig. 5 Survival and antitumor effects of MC180295, DAC, or their combination, with/without CD8 + T cells. A 20 mg/kg MC180295 was administered (i.p.) q.o.d. 0.5 mg/kg DAC was administered (i.p.) daily. Mouse survival in days. B Survival of B6 mice, after CD8 depletion, using an anti-CD8 antibody. 20 mg/kg MC180295 was administered (i.p.) q.o.d. 0.5 mg/kg DAC was administered (i.p.) daily. C Antitumor effects of MC180295 with and without CD8 depletion, using an anti-CD8 antibody. B6 mice were inoculated (s.c.) with 5 × 10^5 CT26.CL25 cells. Eight days later, when tumors were palpable, 20 mg/kg MC180295 was administered (i.p.) q.o.d. 0.5 mg/kg DAC was administered (i.p.) daily. Tumor sizes were measured using a caliper and calculated over vehicle. D Antitumor effects of DAC, with and without CD8 depletion, using an anti-CD8 antibody. B6 mice were inoculated (s.c.) with 5 × 10^5 CT26.CL25 cells. Eight days later, when tumors were palpable, 20 mg/kg MC180295 was administered (i.p.) q.o.d. 0.5 mg/kg DAC was administered (i.p.) daily. Tumor sizes were measured using a caliper and calculated over vehicle. E Antitumor effects of DAC + MC180295, with and without CD8 depletion, using an anti-CD8 antibody. B6 mice were inoculated (s.c.) with 5 × 10^5 CT26.CL25 cells. Eight days later, when tumors were palpable, 20 mg/kg MC180295 was administered (i.p.) q.o.d. 0.5 mg/kg DAC was administered (i.p.) daily. Tumor sizes were measured using a caliper and calculated over vehicle. Significances were calculated using log-rank (Mantel-Cox) or Student's T tests. Data shown as means ± SEMs
# For the s.c. SW48 model, 2 × 10^6 cells were injected into the flanks of randomly assigned, gender-matched 8–10-week-old NSG mice. 20 mg/kg MC180379, MC180380, or MC180295 was injected (i.p.), every other day, when the tumors were palpable, 11 days after engraftment, until endpoints were met. Mice were sacrificed before tumor volumes exceeded 400 mm^2 (endpoint for this model). For the s.c. HT29 model, 2 × 10^6 cells were injected into the flanks of randomly assigned, gender-matched, 8–10-week-old NSG mice. […]
# CDK9/cyclin T, sequence (O60563 whole entry): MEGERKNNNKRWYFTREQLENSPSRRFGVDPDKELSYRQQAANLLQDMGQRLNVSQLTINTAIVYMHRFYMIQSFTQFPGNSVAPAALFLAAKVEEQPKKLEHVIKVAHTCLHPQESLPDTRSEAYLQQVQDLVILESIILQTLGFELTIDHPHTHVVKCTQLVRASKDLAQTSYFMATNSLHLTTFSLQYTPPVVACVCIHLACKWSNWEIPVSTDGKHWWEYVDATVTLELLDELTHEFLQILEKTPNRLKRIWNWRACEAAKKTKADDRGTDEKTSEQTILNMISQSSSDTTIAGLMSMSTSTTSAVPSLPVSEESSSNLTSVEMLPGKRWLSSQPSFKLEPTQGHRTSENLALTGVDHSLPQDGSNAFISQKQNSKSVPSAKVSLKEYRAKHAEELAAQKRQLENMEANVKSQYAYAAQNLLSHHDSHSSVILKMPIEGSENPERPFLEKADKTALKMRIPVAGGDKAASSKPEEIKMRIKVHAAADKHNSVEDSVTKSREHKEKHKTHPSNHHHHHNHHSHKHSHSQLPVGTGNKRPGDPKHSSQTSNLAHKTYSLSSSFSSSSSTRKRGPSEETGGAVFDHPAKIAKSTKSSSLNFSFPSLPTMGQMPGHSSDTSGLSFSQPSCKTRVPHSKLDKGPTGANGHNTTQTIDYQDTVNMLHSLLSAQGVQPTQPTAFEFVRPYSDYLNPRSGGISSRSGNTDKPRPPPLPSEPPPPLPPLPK
# CDK9/cyclin T, sequence (P50750 whole entry): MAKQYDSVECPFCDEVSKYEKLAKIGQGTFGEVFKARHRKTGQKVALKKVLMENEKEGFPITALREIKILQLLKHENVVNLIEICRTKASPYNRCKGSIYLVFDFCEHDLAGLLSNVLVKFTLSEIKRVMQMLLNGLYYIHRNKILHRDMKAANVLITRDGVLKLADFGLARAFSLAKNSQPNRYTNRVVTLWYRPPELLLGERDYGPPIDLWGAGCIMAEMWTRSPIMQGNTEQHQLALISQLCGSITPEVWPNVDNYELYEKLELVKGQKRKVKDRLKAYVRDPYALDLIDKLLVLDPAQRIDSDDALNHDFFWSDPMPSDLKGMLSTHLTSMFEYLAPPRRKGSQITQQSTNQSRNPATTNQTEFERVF
compound,measurement,setting,value
Nc1nc(N[C@H]2C[C@@H]3CC[C@H]2C3)sc1C(=O)c1ccccc1[N+](=O)[O-] (relative stereo) [MC180295],"selectivity for CDK9, compared to other CDKs",CDK9/cyclin T,20 fold
same,IC50,"CDK9/cyclin T; based on two independent assays, read-out: IC50 toward CDK9/cyclin T",3 to 12 nM
same,IC50,[1],171 nM
same,IC50,DU145,211 nM
same,IC50,MCF7,177 nM
same,AUC(0-t),Pharmacokinetics in mice; IP 10 mg/kg,1370 ng·h/mL
same,Cmax,Pharmacokinetics in mice; IP 10 mg/kg,1070 ng/mL
same,Tmax,Pharmacokinetics in mice; IP 10 mg/kg,0.17 h
same,AUC(0-inf),"Pharmacokinetics in mice; IP 10 mg/kg, read-out: AUC 0-inf_obs",3840 ng·h/mL
same,AUC,Pharmacokinetics in mice; IV - 1mg/kg,110 ng·h/mL
same,Cmax,Pharmacokinetics in mice; IV - 1mg/kg,210 ng/mL
same,clearance,Pharmacokinetics in mice; IV - 1mg/kg,3.67 mL/min
same,Vd,"Pharmacokinetics in mice; IV - 1mg/kg, read-out: Vss",0.19 L
same,AUC,Pharmacokinetics in mice; Oral - 2.5mg/kg,71 ng·h/mL
same,Cmax,Pharmacokinetics in mice; Oral - 2.5mg/kg,96 ng/mL
same,Tmax,Pharmacokinetics in mice; Oral - 2.5mg/kg,0.5 h
same,bioavailability,"Pharmacokinetics in mice; Oral - 2.5mg/kg vs IV - 1mg/kg, as fraction",26%
same,half-life,"Pharmacokinetics in mice; ip, 10 mg/kg, IP 10 mg/kg, read-out: T1/2 (converted)",15.8 h
same,half-life,"Pharmacokinetics in mice; ip, 10 mg/kg, IP at 10 mg/kg, read-out: half-life (converted)",15.8 h
same,half-life,"Pharmacokinetics in mice; iv, 1 mg/kg, IV - 1mg/kg, read-out: T1/2 (converted)",0.86 h
same,half-life,"Pharmacokinetics in mice; iv, 1 mg/kg, IV dose of 1 mg/kg, read-out: half-life (converted)",0.86 h
same,bioavailability,Pharmacokinetics in mice; oral dose of 2.5 mg/kg,26%
same,half-life,"Pharmacokinetics in mice; po, 2.5 mg/kg, Oral - 2.5mg/kg, read-out: T1/2 (converted)",1.32 h
same,half-life,"Pharmacokinetics in mice; po, 2.5 mg/kg, oral dose of 2.5 mg/kg, read-out: half-life (converted)",1.3 h
same,survival,CT26.CL25 cells,extended survival
same,tumor size,CT26.CL25 cells,significantly decreased tumor size

# Reference: paper PMC10765884, “MC180295 is a highly potent and selective CDK9 inhibitor with preclinical in vitro and in vivo efficacy in cancer” (Clinical Epigenetics, 2024)
